Measurements: patent US11866707B2, “Use of non-coding RNA SNHG17 as biomarker and therapeutic target” (ZHEJIANG CANCER HOSPITAL, priority 2022, dated 2024)

Legend:
[1] = tested on: SNHG17-overexpressing breast cancer cells (MCF-7); assay: Sensitivity detection of breast cancer cells to fulvestrant (MTT); format: cell-based, human; settings: fulvestrant 2, 4, 8, 16 μmol/L, 48 h, SNHG17-overexpressing cells vs control cells (FIG. 5)
Experimental: MCF-7 and SNHG17 overexpressing breast cancer cells in the logarithmic growth phase were inoculated into 96-well plates (with DMEM complete medium) at a density of 3000 cells per well. Then cells were cultured in a 37° C. 5V/V % CO2 incubator until the cells adhered to the plates. Then added fulvestrant respectively, and the final concentration was 0 (cell control group), 2, 4, 8, and 16 μmol/L. Each concentration was set in 4 duplicate wells, and a blank control group was set at the same time. After being cultured for 48 hours in a 37° C., 5V/V % CO2 incubator, 20 μL of MTT (5 g/L) solution was added to each well. After culturing for 4 hours, discarded the medium and added triple solution (10 g SDS, 5 mL of isobutanol, 0.1 mL of 10M hydrochloric acid, and ddH2O to make a 100 mL solution) and incubated overnight. Then the absorbance (A570 nm) value was measured at 570 nm with an enzyme calibration. The triple solution was used as a blank control group to detect the cells' survival rate. Growth inhibition rate (%)=(control group A570 nm—experimental group A570 nm)/cell control group A570 nm×100%. The growth inhibition rate of fulvestrant on breast cancer cells is shown in FIG. 5, wherein C stands for SNHG17-overexpressing control breast cancer cells, D stands for SNHG17-overexpressing breast cancer cells, *P<0.05, **P<0.01 indicates the data had statistical significance.

[2] = tested on: SNHG17-overexpressing breast cancer cells (MCF-7); assay: Plate colony formation experiment, fulvestrant resistance of SNHG17-overexpressing cells; format: cell-based, human; settings: medium containing 6 μmol/L fulvestrant, 15 days; SNHG17-overexpressing cells vs SNHG17-overexpressing control cells (FIG. 4)
Experimental: The above-mentioned SNHG17-overexpressing control breast cancer cells and SNHG17-overexpressing breast cancer cells were selected for experiments to detect the drug resistance to fulvestrant. 1000 well-grown cells were inoculated into a culture plate (diameter 60 mm) containing DMEM complete medium, then gently shook the culture plate to disperse the cells evenly. The cells were incubated at 37° C., 5V/V % CO2 for 15 days, and replaced complete medium every 3 days. When colonies were visible to the naked eye in the culture dish, the culture was terminated and the culture medium was discarded. After that, the cells were carefully washed twice by PBS and dried. Methanol was used for anchor cells for 15 min, then the methanol was discarded and cells were air-dried. Cells were stained with Giemsa staining solution (purchased from Merck) for 10 min, then the staining solution was slowly washed away with running water, and cells were air-dried. Experiments were divided into blank group (SNHG17-overexpressing control breast cancer stable cells, medium containing 6 μmol/L DMSO), control group (SNHG17-overexpressing control breast cancer cells, medium containing 6 μmol/L fulvestrant), overexpression group (SNHG17-overexpressing breast cancer cells, medium containing 6 μmol/L fulvestrant) 3 groups. […]

Compound: C[C@]12CC[C@@H]3c4ccc(O)cc4C[C@@H](CCCCCCCCC[S+]([O-])CCCC(F)(F)C(F)(F)F)[C@H]3[C@@H]1CC[C@@H]2O (some centres unmarked) [fulvestrant]
- growth inhibition rate of fulvestrant on breast cancer cells [1]: significantly greater than that in SNHG17-overexpressing control breast cancer cells
- number of colonies formed [2]: greater than that of SNHG17-overexpressing control breast cancer cells
